Columns and labels:
male Sprague-Dawley rats = experiment: elevated maze test in the rat (anxiolytic effect); assay type: in vivo; conditions: per os, 60-min pretreatment, 5-min measurement, MED regarding time spent in the open arms and number of entries into the open arms
Protocol: Pharmacological activity of the compounds of the general Formula (I) has been evaluated in elevated maze test in the rat.
The tests were carried out according to the method of S. Fellow and coworkers (J. Neurosci. Methods. 1985, 14, 149-167). During the test, a wooden-floor cross elevated by 50 cm from the ground was used. The length and the width of the arms of the cross were 100 and 15 cm, respectively. Two opposite arms of the cross are fitted at the ends and both sides with black plexiglass wall of 40 cm height (closed arms). The central section of the cross measuring 15 by 15 cm is open. The other two opposite arms of the cross are not provided with walls (open arms).
The tests were carried out in male Sprague-Dawley rats weighing 200 to 220 g. After the 60-min pretreatment time (per os treatment), animals were placed in the center of the maze. During the 5-min measurement time, four variables were recorded: the time spent in the open arms; the time spent in the closed arms; the number of entries into the open arms; the number of entries into the closed arms.
Animals normally avoid the open and light parts of the maze, thereby spending little time therein only. The anxiolytic effect of the compounds of the general Formula (I) is indicated by the increase in the time spent (in seconds) in the open arms and/or by the increase in the number of the entries into the open compartments of the maze. The minimum effective dose (MED) was determined for each tested compounds regarding the time spent in the open arms and the number of entries into the open arms. During the test, the known anxiolytic compound I-methyl-5-phenyl-7-chloro-1,3-dihydro-2H-1,4-benzodiazepin-2-one (INN: diazepam) of the Formula (IV)
was used. Treatment of the animals was carried out orally with the doses 0.1, 0.3, 1.0, 3.0 for diazepam and 0.01, 0.1, 1.0 mg/kg for the compounds of the general Formula (I).

## Cc1cc(Cl)c(Cl)c2c1C(C)NNS2(=O)=O (centres unmarked) [Example 5, 7,8-Dichloro-4,5-dimethyl-3,4-dihydrobenzo[1,2,3]thiadiazine-1,1-dioxide]
Male Sprague-Dawley rats
  MED (minimum effective dose), anxiolytic effect in elevated maze test: 0.01 mg/kg p.o.
other
  melting point: 197 to 199 °C
